Assay results taken from US8389527B2, “Substituted imidazopyridazines useful as kinase inhibitors” (Bristol-Myers Squibb Company, priority 2008, dated 2013).

Experiments:
recombinant CK2A1 = molecular target: T1, recombinant CK2A1 (Homo sapiens, UniProt P68400); experiment: CK2 kinase assay (CK2A1), [γ-33P]ATP filter-binding; assay type: biochemical
T1 construct: purchased Invitrogen
Experimental: (§1) The effectiveness of compounds of the present invention as inhibitors of protein kinases can be readily tested by assays known to those skilled in the art. For example, in vitro protein kinase assays may be conducted with a relevant purified protein kinase and an appropriate synthetic substrate to determine the inhibitory activities of the compounds. […] Reaction mixtures were incubated at 30° C. for 1 h, and reaction products were captured by binding to phosphocellulose (P81) filter plates. Incorporation of radioactive phosphate into the peptide substrate was determined by liquid scintillation counting. The potency of compounds in inhibiting CK2 is expressed as IC50, defined as the concentrations of compounds required to inhibit the enzymatic activity by 50%.

HCT116 = experiment: Cell proliferation inhibition assay (MTT, CellTiter96); assay type: cell-based; conditions: Homo sapiens, HCT-116; HCT116 cells, 72 h with compound, MTT readout
Experimental: B. Cell Proliferation Inhibition Assay
Compounds were evaluated for their ability to inhibit cell proliferation, using an assay that measures mitochondrial metabolic activity, that is directly correlated with cell numbers. Cells were plated at 2000 cells/well in 96-well plates and were cultured for 24 h in RPMI-1640 supplemented with 2% fetal bovine serum, before test compounds were added. Compounds were diluted in culture medium such that the final concentration of dimethyl sulfoxide never exceeded 1%. Following the addition of compounds, the cells were cultured for an additional 72 h before cell viability was determined by measuring the conversion of 3-(4,5-dimethylthiazol-2-yl)-2,5-diphenyltetrazolium bromide (MTT) dye using the CellTiter96 kit (Promega).

recombinant CK2A2 = molecular target: T2, recombinant CK2A2 (Homo sapiens, UniProt P19784); experiment: CK2 kinase assay (CK2A2), [γ-33P]ATP filter-binding; assay type: biochemical
T2 construct: purchased Upstate Biotechnology
Experimental: as §1

[1] = recombinant CK2A1 10 nM, ATP 25 μM, 10 μM peptide substrate, 30° C. 1 h
[2] = recombinant CK2A2 5 nM, ATP 5 μM, 10 μM peptide substrate, 30° C. 1 h
[3] = comparison examples of U.S. 2007/038314 (Table 2)

T2 sequence (P19784 whole entry): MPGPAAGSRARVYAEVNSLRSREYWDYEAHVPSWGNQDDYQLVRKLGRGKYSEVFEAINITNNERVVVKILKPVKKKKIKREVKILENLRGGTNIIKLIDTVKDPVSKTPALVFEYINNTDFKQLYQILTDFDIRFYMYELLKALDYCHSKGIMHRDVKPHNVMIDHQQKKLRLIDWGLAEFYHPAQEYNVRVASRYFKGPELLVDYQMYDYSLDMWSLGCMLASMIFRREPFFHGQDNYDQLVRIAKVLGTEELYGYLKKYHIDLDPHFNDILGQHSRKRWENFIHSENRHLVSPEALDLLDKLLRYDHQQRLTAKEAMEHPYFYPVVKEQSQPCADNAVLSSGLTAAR
T1 sequence (P68400 whole entry): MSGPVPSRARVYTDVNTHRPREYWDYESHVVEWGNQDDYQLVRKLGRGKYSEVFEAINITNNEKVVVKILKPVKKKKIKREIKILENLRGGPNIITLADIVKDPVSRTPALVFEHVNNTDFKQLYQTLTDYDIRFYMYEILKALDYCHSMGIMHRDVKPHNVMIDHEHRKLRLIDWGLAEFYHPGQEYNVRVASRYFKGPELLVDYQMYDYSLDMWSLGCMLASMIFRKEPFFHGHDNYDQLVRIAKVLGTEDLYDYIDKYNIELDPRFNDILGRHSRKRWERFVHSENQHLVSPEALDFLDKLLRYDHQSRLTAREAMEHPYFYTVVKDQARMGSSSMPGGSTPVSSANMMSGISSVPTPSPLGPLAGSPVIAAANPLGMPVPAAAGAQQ

| IC50 (recombinant CK2A1; [1]) [nM] | IC50 (HCT116) [nM] | IC50 (recombinant CK2A2; [2]) [nM] | IC50 (recombinant CK2A1; [3]) [nM] | IC50 (recombinant CK2A2; [3]) [nM] | Compound |
| --- | --- | --- | --- | --- | --- |
| 38.5 | 210 | 0.2 |  |  | CN[C@H](C)C(=O)N[C@H]1CC[C@H](Nc2cc(NC3CC3)c3ncc(C(=O)Nc4ccnc(Cl)c4)n3n2)CC1 (relative stereo) [Example 154, N-(2-chloro-4-pyridinyl)-8-(cyclopropylamino)-6-((trans-4-((N-methyl-D-alanyl)amino)cyclohexyl)amino)imidazo[1,2-b] pyridazine-3-carboxamide] |
| 13.8 | 920 | 0.7 |  |  | N[C@H](Cc1cscn1)C(=O)N[C@H]1CC[C@H](Nc2cc(NC3CC3)c3ncc(C(=O)Nc4ccnc(Cl)c4)n3n2)CC1 (relative stereo) [Example 179, N-(2-chloro-4-pyridinyl)-8-(cyclopropylamino)-6-((trans-4-((3-(1,3-thiazol-4-yl)-D-alanyl)amino)cyclohexyl)amino)imidazo[1,2-b]pyridazine-3-carboxamide] |
| 35 | 80 | 15 |  |  | N[C@H]1CC[C@H](Nc2cc(NC3CCC3)c3ncc(C(=O)Nc4ccncc4)n3n2)CC1 [Example 3, 6-((trans-4-aminocyclohexyl)amino)-8-(cyclobutylamino)-N-4-pyridinylimidazo[1,2-b]pyridazine-3-carboxamide] |
| 11 | 90 | 3 |  |  | C[C@@H](N)C(=O)N[C@H]1CC[C@H](Nc2cc(Nc3ccccn3)c3ncc(C(=O)Nc4ccncc4F)n3n2)CC1 [Example 6, 6-((trans-4-(D-alanylamino)cyclohexyl)amino)-N-(3-fluoro-4-pyridinyl)-8-(2-pyridinylamino)imidazo[1,2-b]pyridazine-3-carboxamide] |
| 42 | 170 | 17 |  |  | O=C(Nc1ccnc(F)c1)c1cnc2c(NC3CC3)cc(N[C@H]3CC[C@H](O)CC3)nn12 [Example 13, 8-(cyclopropylamino)-N-(2-fluoro-4-pyridinyl)-6-((trans-4-hydroxycyclohexyl)amino)imidazo[1,2-b]pyridazine-3-carboxamide] |
| 86 | 170 | 11 |  |  | N[C@H]1CC[C@H](Nc2cc(NC3CC3)c3ncc(C(=O)Nc4ccnc(F)c4)n3n2)CC1 [Example 25C, 6-((trans)-4-aminocyclohexylamino)-8-(cyclopropylamino)-N-(2-fluoropyridin-4-yl)imidazo[1,2-b]pyridazine-3-carboxamide] |
| 247 | 430 | 72 |  |  | O=C(Nc1ccnc(F)c1)c1cnc2c(NC3CC3)cc(N[C@H]3CC[C@H](N4CCOCC4)CC3)nn12 [Example 27, 8-(cyclopropylamino)-N-(2-fluoropyridin-4-yl)-6-((trans)-4-morpholinocyclohexylamino)imidazo[1,2-b]pyridazine-3-carboxamide] |
| 11.5 | 170 | 0.8 |  |  | N#CCC(=O)N[C@H]1CC[C@H](Nc2cc(NC3CC3)c3ncc(C(=O)Nc4ccnc(Cl)c4)n3n2)CC1 [Example 34, N-(2-chloropyridin-4-yl)-6-((trans)-4-(2-cyanoacetamido)cyclohexylamino)-8-(cyclopropylamino)imidazo[1,2-b]pyridazine-3-carboxamide] |
| 57 | 388 |  |  |  | COC(=O)CN[C@H]1CC[C@H](Nc2cc(NC3CC3)c3ncc(C(=O)Nc4ccncc4F)n3n2)CC1 [Example 523, methyl N-(trans-4-((8-(cyclopropylamino)-3-((3-fluoro-4-pyridinyl)carbamoyl)imidazo[1,2-b]pyridazin-6-yl)amino)cyclohexyl)glycinate] |
|  |  |  | > 50000 | 10300 | CCOc1ccc(Nc2cc(N[C@H]3CC[C@H](N)CC3)nn3ccnc23)cc1 [I(1), reference compound] |
|  |  |  | > 50000 | > 50000 | N[C@H]1CC[C@H](Nc2cc(Nc3ccccc3)c3nccn3n2)CC1 [I(7), reference compound] |
|  |  |  | > 50000 |  | Cc1ccc(Nc2cc(N[C@H]3CC[C@H](N)CC3)nn3ccnc23)nc1 [II(16), reference compound] |
